Read-outs that look alike come from different tables or passages of the source.
Key:
[1] = Solid-state stability test (one week, open); format: physicochemical; conditions: for HPLC purity: Purity after placement / Purity after placement/Starting purity / Crystal form change: open, one week; for Crystal form change: XRPD
Method: The solid-state stability of the potassium salt crystal form B prepared in Embodiment 1 was tested, in which 5.22 mg of potassium salt crystal form B samples were weighed and left open at 25° C./60% RH, and 5.19 mg of potassium salt crystal form B samples were weighed and left open at 40° C./75% RH. After one week, all samples were subjected to XRPD characterization (see XRPD parameter settings in Table 1) and HPLC purity test (Agilent 1100) to detect changes in crystal form and purity, wherein HPLC purity test parameters were shown in Table 6. Meanwhile, 4.59 mg of a compound WYQ sample was weighed and left open at 25° C./60% RH, and 5.11 mg of the compound WYQ sample was weighed and left open at 40° C./75% RH. The solid-state stability of these samples were performed under the same conditions for comparative reference.

[2] = Dynamic solubility test in water, SGF, FaSSIF, FeSSIF at 37° C.; format: physicochemical; conditions: for solubility at 1 h / solubility at 4 h / solubility at 24 h: read-out: solubility (S)
PAH rats = assay: Penile erectile function observation in PAH rats; format: in vivo, SD rats
Method: After gavage treatment, penile erection in the animals was observed, wherein the time of penile erection phenomenon after gavage was recorded in each group.

IPF rats = assay: Bleomycin-induced idiopathic pulmonary fibrosis (IPF) rats; format: in vivo, SD rats; conditions: 23 days; for Fibrosis area / Fibrosis score (Ashcroft) / Percentage of score (%) (≤3) / Percentage of score (%) (≥4): left lung
Method: The animals were purchased, and modeling was started after 3-7 days of acclimatization. The animals were weighed and anesthetized by inhalation with isoflurane. After the animals were confirmed to be anesthetized, the neck was disinfected, and the skin of the neck was cut. The main trachea was exposed by bluntly dissecting the muscle, a small incision was made between the tracheal rings, into which a PE-20 tube was inserted until the left main bronchus, and bleomycin was injected directly (dose: 3 mg/kg, volume: 1.0 ml/kg). The trachea and skin were sutured. After the surgery, the animals were kept warm at 37° C. under an electric blanket until the animals were fully awake and confirmed to be able to feed and drink freely before returning the animals to their normal feeding cages.
50 mg/kg Nintedanib group (BIBF-50 mg/kg): BIBF was prepared into a solution of 10 mg/ml with 0.5% sodium carboxymethyl cellulose and administered by gavage at a dose of 50 mg/kg^−1·d^−1;
Each group of rats was administered by gavage on the day of modeling, once a day for 23 days in total.
After 23 days of continuous administration, all animals in each group were euthanized by intraperitoneal injection of pentobarbital sodium anesthetic (100 mg/kg) in accordance with the KCl standard operating procedure for animal euthanasia. Whole-body perfusion was performed by low-temperature PBS, and then fixation was performed by whole-body formalin perfusion. The left lung was taken and perfused with an equal amount of formalin fluid for weighing and subsequent lung pathology-related tests.
Left lung gross pathological examination: after perfusion with an equal amount of formalin, the wet weight of the left lung after the perfusion was weighed and recorded with a microbalance; the volume of the left lung after perfusion was measured and recorded using a toe volume measuring instrument.
The whole lung of the left lung was dehydrated according to the KCl pathology standard SOPs, and paraffin blocks were prepared. The whole lung of the left lung was paraffin-sectioned at a thickness of 3-4 μm. HE staining and Masson Trichrome staining were performed according to the KCl pathology standard staining SOPs, and the slice panoramic scanning was carried out by a Hamamatsu NanoZoomer Digital Pathology (S210) slice scanner. The lung lesion area was calculated by Masson Trichrome staining of the sections, and the left lung fibrosis area (%) was the percentage of fibrosis area in the left lung area; 10 randomly selected fields of view of 1 mm^2 in the lesion area were semi-quantitatively scored by the pathologist under double-blind conditions according to the Ashcroft scoring system (as shown in Table 8 and FIG. 40).

[3] = both test conditions (25° C./60% RH, 40° C./75% RH)
[4] = 10 mg/kg, listed as CPD-1, 10 mg/kg
[5] = 10 mg/kg, listed as potassium salt crystal form B of WYQ

In the case of CCCCOC(=O)[N-]S(=O)(=O)c1cccc(-c2nc3c(CCC)nn(C)c3c(=O)[nH]2)c1.[K+] [potassium salt crystal form B], the “HPLC purity: Purity after placement” value ([1]; 25° C./60% RH) is reported as 98.62 area %, the “Purity after placement/Starting purity” value ([1]; 25° C./60% RH) is reported as 99.9% and the Crystal form change ([1]; 25° C./60% RH) is reported as “unchanged”. For the same molecule, the “HPLC purity: Purity after placement” value ([1]; 40° C./75% RH) was 98.51 area %, the “Purity after placement/Starting purity” value ([1]; 40° C./75% RH) was 99.8% and the Crystal form change ([1]; 40° C./75% RH) was “unchanged”. The “change in purity after one week of placement” value [1, 3] was “no significant change”, the “change in the crystal form after one week of placement” value [1, 3] was “no change” and the “crystal form change after XRPD assay (FC)” value (“crystal form change … (FC)” for short) ([2]; FaSSIF, 1 h) was “yes”. For the same molecule, the pH ([2]; FaSSIF, 1 h) was 6.8, the “crystal form change … (FC)” value ([2]; FaSSIF, 4 h) was “yes” and the pH ([2]; FaSSIF, 4 h) was 6.8. For the same molecule, the “crystal form change … (FC)” value ([2]; FaSSIF, 24 h) was “yes”, the pH ([2]; FaSSIF, 24 h) was 6.8 and the “crystal form change … (FC)” value ([2]; FeSSIF, 1 h) was “yes”. The pH ([2]; FeSSIF, 1 h) was 5.5, the “crystal form change … (FC)” value ([2]; FeSSIF, 4 h) was “yes” and the pH ([2]; FeSSIF, 4 h) was 5.5. For the same molecule, the “crystal form change … (FC)” value ([2]; FeSSIF, 24 h) was “yes”, the pH ([2]; FeSSIF, 24 h) was 5.5 and the “crystal form change … (FC)” value ([2]; SGF, 1 h) was “yes”. The pH ([2]; SGF, 1 h) was 7.5, the “crystal form change … (FC)” value ([2]; SGF, 4 h) was “yes” and the pH ([2]; SGF, 4 h) was 7.3. The “crystal form change … (FC)” value ([2]; SGF, 24 h) was “yes”, the pH ([2]; SGF, 24 h) was 7.7 and the solubility at 1 h ([2]; fasted-state simulated intestinal fluid (FaSSIF), thermodynamic from solid, FaSSIF, 1 h) was 10700 µg/mL. It also gave a solubility at 4 h ([2]; fasted-state simulated intestinal fluid (FaSSIF), thermodynamic from solid, FaSSIF, 4 h) of 9500 µg/mL, a solubility at 24 h ([2]; fasted-state simulated intestinal fluid (FaSSIF), thermodynamic from solid, FaSSIF, 24 h) of 9800 µg/mL and a solubility at 1 h ([2]; fed-state simulated intestinal fluid (FeSSIF), thermodynamic from solid, FeSSIF, 1 h) of 400 µg/mL. It also gave a solubility at 4 h ([2]; fed-state simulated intestinal fluid (FeSSIF), thermodynamic from solid, FeSSIF, 4 h) of 430 µg/mL, a solubility at 24 h ([2]; fed-state simulated intestinal fluid (FeSSIF), thermodynamic from solid, FeSSIF, 24 h) of 430 µg/mL and a solubility at 1 h ([2]; simulated gastric fluid (SGF), simulated gastric fluid, thermodynamic from solid, SGF, 1 h) of 6800 µg/mL. For the same molecule, the solubility at 4 h ([2]; simulated gastric fluid (SGF), simulated gastric fluid, thermodynamic from solid, SGF, 4 h) was 7000 µg/mL, the solubility at 24 h ([2]; simulated gastric fluid (SGF), simulated gastric fluid, thermodynamic from solid, SGF, 24 h) was 7700 µg/mL and the solubility at 1 h ([2]; thermodynamic from solid, water, 1 h) was 12500 µg/mL. For the same molecule, the solubility at 4 h ([2]; thermodynamic from solid, water, 4 h) was 13100 µg/mL, the solubility at 24 h ([2]; thermodynamic from solid, water, 24 h) was 12900 µg/mL and the solubility ([2]; thermodynamic from solid, water, read-out: solubility in water (the highest)) was no more than 12900 µg/mL. The “crystal form change … (FC)” value ([2]; water, 1 h) was “weak”, the pH ([2]; water, 1 h) was 7.6 and the “crystal form change … (FC)” value ([2]; water, 4 h) was “weak”. For the same molecule, the pH ([2]; water, 4 h) was 7.4, the “crystal form change … (FC)” value ([2]; water, 24 h) was “weak” and the pH ([2]; water, 24 h) was 7.4. The “rats showing penile erection” value (PAH rats; high-dose 20 mg·kg^−1d^−1, over 40 min after gavage) was 80%, the “rats showing penile erection” value (PAH rats; low-dose 5 mg·kg^−1d^−1, over 1 h after gavage) was 50% and the “rats showing penile erection” value (PAH rats; medium-dose 10 mg·kg^−1d^−1, over 1 h after gavage) was 80%. For the same molecule, the “rats showing penile erection” value (PAH rats; mini-dose 2 mg·kg^−1d^−1, over 1 h after gavage) was 30%, the Left lung volume (IPF rats; 2.5 mg/kg gavage once a day) was 1779.9 ± 105.76 mm^3 and the Left lung weight (IPF rats; 2.5 mg/kg gavage once a day) was 1.59 ± 0.10 g. For the same molecule, the “alveolar tissue structure in left lung pulmonary fibrosis lesions (HE staining)” value (IPF rats; 2.5 mg/kg) was “some of the alveolar structures in the fibrotic lesions were damaged”, the “alveolar tissue structure in left lung pulmonary fibrosis lesions (Masson Trichrom staining)” value (IPF rats; 2.5 mg/kg) was “some of the alveolar structures in the fibrotic lesions were preserved” and the Left lung volume (IPF rats; 10 mg/kg gavage once a day) was 1604.5 ± 153.72 mm^3. The Left lung weight (IPF rats; 10 mg/kg gavage once a day) was 1.47 ± 0.16 g, the “alveolar tissue structure in left lung pulmonary fibrosis lesions (HE staining)” value (IPF rats; 10 mg/kg) was “the alveolar structures in the fibrotic lesions were preserved” and the “alveolar tissue structure in left lung pulmonary fibrosis lesions (Masson Trichrom staining)” value (IPF rats; 10 mg/kg) was “most of the alveolar structures in the fibrotic lesions were preserved”. For the same molecule, the “smooth muscle proliferation and inflammatory cell infiltration in bronchioles and pulmonary arterioles of left lung fibrosis lesions vs model group” value (IPF rats; 10 mg/kg, HE staining) was “better effects”, the “left lung pulmonary fibrosis lesions and lesion range vs the model group” value (IPF rats; different doses, H&E and Masson Trichrom staining) was “no significant difference” and the Fibrosis area (IPF rats; 2.5 mg/kg) was 51.99 ± 3.21%. For the same molecule, the “Fibrosis score (Ashcroft)” value (IPF rats; 2.5 mg/kg) was 3.21 ± 0.30, the “Percentage of score (%) (≤3)” value (IPF rats; 2.5 mg/kg) was 53.75 ± 9.81% and the “Percentage of score (%) (≥4)” value (IPF rats; 2.5 mg/kg) was 46.25 ± 9.81%. For the same molecule, the Fibrosis area (IPF rats; 10 mg/kg) was 53.42 ± 4.44%, the “Percentage of score (%) (≤3)” value (IPF rats; 10 mg/kg) was 71.25 ± 10.08% and the “Fibrosis score (Ashcroft)” value (IPF rats; [4]) was 2.69 ± 0.31. For the same molecule, the “Percentage of score (%) (≥4)” value (IPF rats; [4]) was 28.75 ± 10.08%, the “Fibrosis score (Ashcroft)” value (IPF rats; [5]) was “significantly inhibit” and the “Percentage of score (%) (≥4)” value (IPF rats; [5]) was “significantly reduced”.

— patent US12441732B2, “Potassium salt crystal form B of phosphodiesterase type 5 inhibitor, and preparation method and use therefor” (Guangzhou Huazhen Pharmaceutical Co., Ltd, priority 2019, dated 2025)
